Laboratory results taken from publication PMC9499463, “Potent Chlorambucil-Platinum(IV) Prodrugs” (International Journal of Molecular Sciences, 2022).
Several values for one entry are separate records, joined by “and”; a condition that tells them apart may be missing. Equal entries are not always repeated. Where two headings read alike, the source gives them in different places.

How the values were obtained:
[1] = system: SJ-G2 glioblastoma; experiment: MTT growth inhibition assay, 72 h; format: cell-based, human
[2] = system: Du145 prostate; experiment: MTT growth inhibition assay, 72 h; format: cell-based, human; conditions: for GI50: MTT, 72 h
[3] = system: panel of cell lines; experiment: MTT growth inhibition assay, 72 h, over the cell line panel; format: cell-based, human
[4] = system: H460 lung; experiment: MTT growth inhibition assay, 72 h; format: cell-based, human
[5] = system: ADDP ovarian (cisplatin-resistant A2780 clone); experiment: MTT growth inhibition assay, 72 h; format: cell-based, human; conditions: for fold more active than cisplatin: ADDP ovarian cell line; for GI50: MTT, 72 h
[6] = system: HT29 colon cells; experiment: ROS detection assay (DCFH-DA fluorescence); format: cell-based, human; conditions: compounds at GI50 concentration, TBHP and NAC 20 μM
Method: HT29 colon cells were stained by DCFH-DA and then treated with the compounds at each specific GI50 concentration. Upon ROS production, the DCFH-DA produced […], a fluorescent product. The measured fluorescence was, therefore, proportional to the produced ROS. […] 56CLB at 24 h reported 395 RFU, 437 RFU at 48 h, and 558 RFU at 72 h (Table 6, Figure 14 and Figure S42), respectively, showing a significant production of ROS in comparison to control cells. 5CLB at 24 h produced 337 RFU, 324 RFU at 48 h, and 376 RFU at 72 h (Table 6, Figure 14 and Figure S42), respectively.
To investigate for the presence of ROS in treated cells, DCFDA/H2DCFDA-cellular ROS Assay Kit (Abcam, Cambridge, MA, USA) was used, as described. A total of 25,000 cells/mL of HT29 cells in DMEM were seeded in 96-well plates. Cells were washed with 1X kit buffer, then stained with 25 μM 2’,7’-dichlorofluorescein diacetate (DCFH-DA) and incubated for 45 min. DCFH-DA was then removed, and cells were then re-washed with 1X kit buffer, after which phenol red free media was added. Cells were then treated with GI50 drug concentration for each complex. The plates were directly scanned to measure fluorescence (relative fluorescence units (RFU)) at different time points using the Glo-Max®-Multimode microplate reader (Promega Corporation, Alexandra, VIC, Australia) at an excitation/emission of 485/535 nm. To generate the positive control (20 μM tert-butyl hydroperoxide (TBHP)), cells were washed with 1X kit buffer, and stained with DCFDA (25 μM) for 45 min. DCFDA was then removed and TBHP was added in phenol red free media. The plate was scanned to measure the RFU at different time points as mentioned above. The same method applies for the negative control treated with 20 μM N-acetylcysteine (NAC).

[7] = system: MIA pancreas; experiment: MTT growth inhibition assay, 72 h; format: cell-based, human; conditions: for GI50: MTT, 72 h; for fold more active than CLB: MIA pancreas cell line
[8] = system: BE2-C neuroblastoma; experiment: MTT growth inhibition assay, 72 h; format: cell-based, human
[9] = system: U87 glioblastoma; experiment: MTT growth inhibition assay, 72 h; format: cell-based, human
[10] = system: A431 skin; experiment: MTT growth inhibition assay, 72 h; format: cell-based, human
[11] = system: HT29 colon; experiment: MTT growth inhibition assay, 72 h; format: cell-based, human; conditions: for GI50: MTT, 72 h
[12] = system: non-tumor-derived MCF10A breast line; experiment: MTT growth inhibition assay, 72 h; format: cell-based, human
[13] = system: MCF-7 breast; experiment: MTT growth inhibition assay, 72 h; format: cell-based, human; conditions: MTT, 72 h
[14] = system: A2780 ovarian; experiment: MTT growth inhibition assay, 72 h; format: cell-based, human
[15] = Lipophilicity by HPLC (log kw); format: physicochemical; conditions: chromatographic lipophilicity index, extrapolated to 100% d.i.H2O
Excerpt: For lipophilicity measurements, HPLC was utilized instead of the traditional shake-flask method, as described. A few studies have also reported the important and effective use of HPLC to measure the lipophilicity of compounds [66, 67]. Each complex was eluted under several isocratic ratios. A standard curve was then generated to calculate the log value of the capacity factor (log k) according to eqn (1). Following eqn (2), the percentage of organic solvent (CH3CN) in the mobile phase from each isocratic run was plotted against […] (Figure S34). Since log kw is the chromatographic lipophilicity index or measure of lipophilicity of the complex, a higher value corresponds to greater lipophilicity. Since PCLB, 5CLB, and 56CLB are structurally related, there were no significant variations in lipophilicity noted based on the calculated log kw values (Table 4). It is evident that PCLB is the least lipophilic of the group, with a calculated log kw value of 1.80, which is likely due to the absence of methyl groups in its phenanthroline system. 5CLB and 56CLB were the most lipophilic of the group with calculated log kw values of 1.90 and 1.87, respectively, and this is due to the presence of methyl substituents in their phenanthroline systems. […] Additionally, the chromatographic lipophilicity index of CLB was also measured using the abovementioned method, with a calculated log kw of 1.88, which is within the range observed for PCLB, 5CLB, and 56CLB. However, CLB was approximately 1-fold more lipophilic than PCLB. […] The order of increasing lipophilicity is […].
For lipophilicity measurements, analytical HPLC was utilized. Elution profiles were acquired on an Agilent Technologies 1260 Infinity instrument equipped with a Phenomenex Onyx^TM Monolithic C18-reverse phase column (100 × 4.6 mm, 5 µm pore size). The mobile phase consisted of solvents, A (0.06% TFA in d.i.H2O) and B (0.06% TFA in CH3CN/d.i.H2O (90:10)). Potassium iodide was used as an external dead volume marker to determine the dead time of the column. Retention times (TR) were measured at varying isocratic ratios ranging from 42% to 48% of solvent B at 1 mL/min. An injection volume of 10 µL was utilized. Capacity factors were determined according to Equation (1):(1) k=(TR−T0)/T0, where k is the capacity factor, TR is the retention time of the analyte, and T0 represents the dead time. A minimum of four different mobile compositions were used for each complex to calculate k. A linear plot was generated of log k against the concentration of CH3CN in the mobile phase to determine the value of log kw expressed by Equation (2):(2) logk=Sφ+logkw, where S is the slope, φ is the concentration of the CH3CN in the mobile phase and log kw represents the capacity factor of the complex in 100% d.i.H2O. […]

[16] = system: MCF-7 breast; conditions: MCF-7 cell line; read-out: GI50 MCF-7 of prodrug designed by Ma et al.; cited from earlier work
[17] = average over all cell lines tested, read-out: Average GI50 Values

Row | SMILES | GI50 [1] [nM] | GI50 [2] [nM] | GI50 [3, 17] | GI50 [4] [nM] | fold more active than cisplatin [5] | GI50 [5] [nM] | ROS Production ([6]; 24 h) | ROS Production ([6]; 48 h) | ROS Production ([6]; 72 h) | GI50 [7] [nM] | GI50 [8] [nM] | GI50 [9] [nM] | GI50 [10] [nM] | GI50 [11] [nM] | GI50 [12] [nM] | GI50 [13] [nM] | GI50 [14] [nM] | fold more active than CLB [7] [fold] | other results
1 | N[C@H]1CCCC[C@@H]1N.[Cl][Pt][Cl].c1cnc2c(c1)ccc1cccnc12 [PHENSS, [Pt^II(1,10-phenanthroline)(1S,2S-diaminocyclohexane)]Cl2] | 330 ± 0.066 | 100 ± 0.038 | 434 ± 0.11 nM | 360 ± 0.035 | 150 fold | 190 ± 0.047 | 174 ± 2 RFU | 172 ± 9 RFU | 176 ± 7 RFU | 200 ± 0.057 | 380 ± 0.046 | 980 ± 0.27 | 480 ± 0.17 | 160 ± 0.045 | 300 ± 0.058 | 1500 ± 0.5 | 230 ± 0.03 |  | 
2 | O=C(O)CCCc1ccc(N(CCCl)CCCl)cc1 [CLB, 4-[bis(2-chloroethyl)amino] phenylbutyric acid, reference compound] |  |  |  |  |  |  | 110 ± 3 RFU | 190 RFU and 190 ± 5 RFU | 204 ± 4 RFU |  |  |  |  |  |  |  |  |  | GI50 ([1]; Homo sapiens, SJ-G2): 11000 nM; GI50 ([2]; Homo sapiens, DU-145): 27000 nM; GI50 ([3]; Homo sapiens, average over all cell lines tested, read-out: Average GI50 Values): 22000 nM; GI50 ([3]; Homo sapiens, range over the cell lines named in the sentence, read-out: GI50 values ranging (over cell lines)): 4300 to 40000 nM; GI50 ([4]; Homo sapiens, NCI-H460): 11000 nM; GI50 ([5]; Homo sapiens, Cisplatin-resistant A2780): 16000 nM; GI50 ([7]; Homo sapiens): 40000 nM; GI50 ([8]; Homo sapiens, BE(2)-C): 20000 nM; GI50 ([9]; Homo sapiens): 38000 nM; log kw [15]: 1.88; GI50 ([10]; Homo sapiens, A-431): 35000 nM; GI50 ([11]; Homo sapiens, HT-29): 39000 nM; GI50 ([12]; Homo sapiens, MCF-10A): 17000 nM; GI50 ([13]; Homo sapiens, MCF7): 11000 nM; GI50 ([14]; Homo sapiens, A2780): 4300 ± 0.4 nM
3 | Cc1cc2cccnc2c2ncccc12.N[C@H]1CCCC[C@@H]1N.[Cl][Pt][Cl] [5MESS, [Pt^II(5-methyl-1,10-phenanthroline)(1S,2S-diaminocyclohexane)]Cl2] | 220 ± 0.01 | 22 ± 0.0027 | 117 ± 0.01 nM | 41 ± 0.005 | 800 fold | 34 ± 0.0023 | 204 ± 4 RFU | 205 ± 3 RFU | 188 ± 3 RFU | 48 ± 0.002 | 270 ± 0.038 | 320 ± 0.026 | 120 ± 0.025 | 33 ± 0.0038 | 30 ± 0.0018 | 200 ± 0.012 | 61 ± 0.01 |  | 
4 | N.N.O=C([O-])C1(C(=O)[O-])CCC1.[Pt+2] [Carboplatin, cis-diammine(1,1-cyclobutanedicarboxylato) platinum(II), reference compound] | 5700 ± 0.2 | 15000 | 32200 nM | 14000 |  | > 50000 |  |  |  | > 50000 | 19000 | > 50000 | 24000 | > 50000 | > 50000 | > 50000 | 9200 ± 2.9 |  | 
5 | Cc1c(C)c2cccnc2c2ncccc12.N[C@H]1CCCC[C@@H]1N.[Cl][Pt][Cl] [56MESS, [Pt^II(5,6-dimethyl-1,10-phenanthroline)(1S,2S-diaminocyclohexane)]Cl2] | 66 ± 0.022 | 4.6 ± 0.00039 | 40 nM and 36 nM | 21 ± 0.0019 | more than 2000 fold | 13 ± 0.0022 | 240 ± 5 RFU | 218 ± 3 RFU | 255 ± 4 RFU | 13 ± 0.002 | 59 ± 0.0041 | 35 ± 0.0064 | 29 ± 0.001 | 10 ± 0.0016 | 16 ± 0.0012 | 93 ± 0.044 | 76 ± 0.057 | ~4000 | fold increase in potency compared to CLB ([2]; Du145 prostate cell line): 6000 fold; fold more active than CLB ([11]; HT29 colon cell line): ~4000 fold
6 | N.N.[Cl][Pt][Cl] [Cisplatin, cis-diamminedichloroplatinum(II), reference compound] | 400 ± 0.1 | 1200 ± 0.1 | 5842 ± 0.61 nM | 900 ± 0.2 |  | 28000 | 214 ± 9 RFU | 214 ± 9 RFU | 200 ± 9 RFU | 7500 ± 1.3 | 1900 ± 0.2 | 3800 ± 1.1 | 2400 ± 0.3 | 11300 | 5200 ± 0.52 | 6500 ± 0.8 | 1000 ± 0.1 | 5 | 
7 | N.N.O=C([O-])CCCc1ccc(N(CCCl)CCCl)cc1.O=C([O-])CCCc1ccc(N(CCCl)CCCl)cc1.[Cl-].[Cl-].[Pt+4] |  |  |  |  |  |  |  |  |  |  |  |  |  |  |  |  |  |  | GI50 [16]: 2190 ± 0.02 nM
8 | O=C1[O][Pt]2([NH][C@@H]3CCCC[C@H]3[NH]2)[O]C1=O (relative stereo) [Oxaliplatin, trans-L-(1R,2R-diaminocyclohexane) oxalatoplatinum(II), reference compound] | 3000 ± 1.2 | 2900 ± 0.4 | 1463 ± 0.32 nM | 1600 ± 0.1 |  | 800 ± 0.1 |  |  |  | 900 ± 0.2 | 900 ± 0.2 | 1800 ± 0.2 | 4100 ± 0.5 | 900 ± 0.2 |  | 500 ± 0.1 | 160 ± 0.1 | 44 | 
9 | CC(=O)N[C@@H](CS)C(=O)O [NAC, N-acetylcysteine, reference compound] |  |  |  |  |  |  | 71 ± 2 RFU | 85 ± 6 RFU | 91 ± 5 RFU |  |  |  |  |  |  |  |  |  | 
10 | CC(C)(C)OO [TBHP, tert-butyl hydroperoxide, reference compound] |  |  |  |  |  |  | 514 RFU and 514 ± 3 RFU | 336 RFU and 336 ± 2 RFU | 332 RFU and 332 ± 5 RFU |  |  |  |  |  |  |  |  |  | 
